Literature values as cited in patent US20070128276A1 (PANACEA BIOTEC LTD., priority 1999, published 2007).

Assays:
prostaglandin synthesis = conditions: in vitro
yeast-induced fever = conditions: rats with yeast-induced fever
[1] = animal studies
[2] = tested on: renal prostaglandin synthesis; conditions: rats

effect on renal prostaglandin synthesis [2]: little effect
oral drug absorption: nearly complete
bound to plasma proteins (plasma proteins): 99%
SMILES: CS(=O)(=O)Nc1ccc([N+](=O)[O-])cc1Oc1ccccc1 [Nimesulide]
inhibition of prostaglandin synthesis (prostaglandin synthesis): relatively weak inhibitor
antipyretic potency versus reference drugs (yeast-induced fever): superior antipyretic potency to indomethacin, ibuprofen, aspirin and paracetamol (acetaminophen)
ulcerogenicity versus reference NSAIDs [1]: less ulcerogenic than aspirin, indomethacin, naproxen, piroxicam and ibuprofen
effect of concomitant food on absorption (oral, concomitant administration of food): may decrease the rate, but not the extent of absorption
